Entries after “also recorded” stand apart in the source; their conditions may differ.
How the values were obtained:
[1] = test system: BxPC3 cells; test: Viable cell count in vitro, BxPC3; format: cell-based, human; settings: 100 μg/ml BVZ
Protocol: FIG. 14. Effects of treatment with BVZ and MIT on the growth of and gene expression in human pancreatic cancer cells in vitro. (A) BxPC3 and (B) PANC-1 cells were incubated for 1 to 5 days in a medium alone or a medium containing 100 μg/ml BVZ. The viable cells were counted every 24 hours. C, PANC-1 cells were incubated for 6 to 48 hours in a medium alone or a medium containing 100 μg/ml BVZ. Total protein lysates were harvested from the cell cultures, and the level of Sp1, EGFR, and VEGF protein expression was determined using Western blot analysis. Equal protein-sample loading was monitored by probing the same membrane filter with an anti-glyceraldehyde-3-phosphate dehydrogenase antibody (GAPDH). D and E, PANC-1 cells were treated with MIT at concentrations ranging from 0.1 to 1.2 μM for 24 and 48 hours. (D) Cytotoxicity was assessed using the MTT assay, and (E) the level of gene expression was determined using Western blot analysis. NS, nonspecific.
Effects of treatment with BVZ and MIT on the growth of and gene expression in human pancreatic cancer cells. To further determine whether treatment with BVZ directly impacts gene expression in pancreatic cancer cells, we incubated PANC-1 and BxPC3 cells in a medium alone or a medium containing 100 μg/ml BVZ for 6 to 48 hours.

[2] = test system: BxPC3 cells; test: BxPC3 subcutaneous xenograft, tumor volume and body weight; format: in vivo, nude mice
Excerpt: FIG. 10. Dose-dependent antitumor effects of BVZ and MIT in xenograft models of human pancreatic cancer. […] C and D, the control mice and mice that received (C) BVZ and (D) MIT were weighed at the time of experiment termination, and the weights were expressed as the mean±SD.
FIG. 11. Synergistic antitumor effects of treatment with BVZ and MIT in xenograft models of human pancreatic cancer. […] C, representative tumor sizes in each group of BxPC3 model mice.
To determine whether this takes place, we treated pancreatic cancer in nude mice with BVZ, MIT, or a combination of the two (B+M). Specifically, we first performed dose-response experiments. We injected BxPC3 cells subcutaneously into nude mice.
Next, we performed experiments using both BxPC3 and PANC-1 tumor cell models in which we administered PBS, BVZ (25 μg), MIT (0.10 mg/kg), or B+M to a group of nude mice.

[3] = test system: Sp1 promoter; test: Sp1 promoter luciferase reporter in PANC-1 cells; format: cell-based, human; settings: 100 μg/ml BVZ or 0.1 μM MIT
Protocol: FIG. 15. Effects of treatment with BVZ and MIT on Sp1 recruitment into the Sp1 promoter in human pancreatic cancer cells in vitro and in vivo. A, schematic structures of the minimal Sp1 promoters. The nucleotide positions and sequences of Sp1-binding sites and polymerase chain reaction forward and reverse primers flanking those sites for ChIP assay are shown. B, Sp1 and VEGF promoter reporter constructs were transfected into PANC-1 cells in triplicate and incubated for 12 hours. The cells were then incubated for another 24 hours in a medium alone or a medium containing 100 μg/ml BVZ or 0.1 μM MIT. Total protein lysates were harvested from the cell cultures for measurement of Sp1 and VEGF promoter activity using a luciferase assay kit. The relative Sp1 and VEGF promoter activities were assessed, and the activity in treated groups was expressed as the fold change of that in their respective control groups. C and D, chromatin was extracted from (C) PANC-1 cells that were incubated in vitro for 2 days in a medium alone or a medium containing 100 μg/ml BVZ or 0.1 μM MIT and (D) tumors formed by PANC-1 cells in nude mice that received treatment as described in FIG. 2A. […]
Sp1 promoter constructs and analysis of Sp1 promoter activity. […] The reporter luciferase activity was measured 48 hours later using a luciferase assay kit (Promega, Madison, Wis.). […]

## bevacizumab [BVZ]
[1]
  cell growth in vitro: did not affect the growth
[2]; BVZ 25 μg, MIT 0.10 mg/kg, or B+M
  antitumor activity at low dose: slight antitumor effects; also recorded: marginal antitumor activity
[2]; BVZ 25, 50, 100 μg, MIT 0.1, 0.2, 0.4 mg/kg, i.p. twice a week
  antitumor activity, dose-response: suppressed human pancreatic cancer growth
[2]; BVZ alone, 25-100 μg
  body weight: no discernable effect on body weight
[3]
  Sp1 promoter activity: did not suppress Sp1 promoter activity
